As usually defined, the Ki is the dissociation constant of the complex between target and ligand, obtained from inhibition or displacement. High values mean lower affinity, low ones higher affinity.

Consider 14 molecules from US6872834B2, “Phenyl-substituted indoles and indazoles” (Ortho-McNeil Pharmaceutical, Inc., priority 2000, dated 2005).

The target of the assay is T1, histamine H3 receptor (Homo sapiens, UniProt Q9Y5N1).
T1 construct: expressed in transfected cells; membranes
Kind of assay: [3H]-N-methylhistamine binding. The note with it: membranes from histamine H3 receptor-expressing SK-N-MC cells; 0.8 nM [3H]-N-methylhistamine; 45 minutes at 25° C. As to the method:
1(A) Transfection of Cells with Human Histamine Receptor
A 10 cm tissue culture dish with a confluent monolayer of SK-N-MC cells was split two days prior to transfection. Using sterile technique the media was removed and the cells were detached from the dish by the addition of trypsin. One fifth of the cells were then placed onto a new 10 cm dish. Cells were grown in a 37° C. incubator with 5% CO2 in Minimal Essential Media Eagle with 10% Fetal Bovine Serum. After two days cells were approximately 80% confluent. These were removed from the dish with trypsin and pelleted in a clinical centrifuge. […] One μg supercoiled H3 receptor cDNA was added to the cells and mixed. The voltage for the electroporation was set at 0.25 kV, the capacitance is set at 960 μF.
After electroporation the cells were diluted into 10 mL complete media and plated onto four 10 cm dishes. Due to the variability in the efficiency of electroporation, four different concentrations of cells were plated. The ratios used were: 1:20, 1:10, and 1:5, with the remainder of the cells being added to the fourth dish. The cells were allowed to recover for 24 hours before adding the selection media (complete media with 600 μg/ml G418). After 10 days dishes were analyzed for surviving colonies of cells. Dishes with well-isolated colonies were used. Cells from individual colonies were isolated and tested. SK-N-MC cells were used because they give efficient coupling for inhibition of adenylate cyclase. The clones that gave the most robust inhibition of adenylate cyclase in response to histamine were used for further study.
1(B) [3H]-N-methylhistamine Binding
Cell pellets from histamine H3 receptor-expressing SK-N-MC cells were homogenized in 20 mM TrisHCl/0.5 mM EDTA. Supernatants from a 800 g spin were collected, reccentrifuged at 30,000 g for 30 minutes. Pellets were rehomogenized in 50 mM Tris/5 mM EDTA (pH 7.4). Membranes were incubated with 0.8 nM [^3H]-N-methylhistamine plus/minus test compounds for 45 minutes at 25° C. and harvested by rapid filtration over GF/C glass fiber filters (pretreated with 0.3% polyethylenimine) followed by four washes with ice cold buffer. Filters were dried, added to 4 mL scintillation cocktail and then counted on a liquid scintillation counter. Non-specific binding was defined with 10 μM histamine.

T1 sequence (Q9Y5N1 whole entry): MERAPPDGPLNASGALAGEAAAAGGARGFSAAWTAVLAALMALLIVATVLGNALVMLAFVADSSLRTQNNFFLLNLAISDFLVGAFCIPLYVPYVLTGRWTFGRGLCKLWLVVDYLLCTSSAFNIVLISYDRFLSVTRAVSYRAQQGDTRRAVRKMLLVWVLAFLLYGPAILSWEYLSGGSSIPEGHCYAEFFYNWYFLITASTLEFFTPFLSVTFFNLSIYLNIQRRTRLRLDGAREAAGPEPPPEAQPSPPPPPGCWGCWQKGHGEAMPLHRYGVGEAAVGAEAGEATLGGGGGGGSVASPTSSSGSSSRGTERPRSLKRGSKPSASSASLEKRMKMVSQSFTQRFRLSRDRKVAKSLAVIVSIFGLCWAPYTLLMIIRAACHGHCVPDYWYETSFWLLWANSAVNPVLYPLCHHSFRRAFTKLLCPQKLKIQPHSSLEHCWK

In turn, `CS(=O)(=O)n1c(-c2ccc(OCCCN3CCCCC3)cc2)cc2ccccc21` [Example 1, 2-[4-[3-Piperidinopropoxy]phenyl)-1-(methylsulfonyl)-1H-indole] gave an inhibition constant (Ki) of 7 nM.
In the case of `c1ccc2[nH]c(-c3ccc(OCCCN4CCCCC4)cc3)cc2c1` [Example 2, 2-[4-(3-Piperidinopropoxy]phenyl)-1H-indole] it was 48 nM.
As to `CN1CCCC1CCOc1ccc(-c2cc3ccccc3n2S(C)(=O)=O)cc1` (centres unmarked) [Example 3, 2-[4-[2-[1-(methyl)-2-pyrrolidinyl]ethoxy]phenyl)-1-(methylsulfonyl)-1H-indole], the Ki stood at 77 nM.
The result for `CN1CCCC1CCOc1ccc(-c2cc3ccccc3[nH]2)cc1` (centres unmarked) [Example 4, 2-[4-[2-[1-(methyl)-2-pyrrolidinyl]ethoxy]phenyl)-1H-indole] reads 100 nM.
In the case of `CN1CCC(Oc2ccc(-c3cc4ccccc4n3S(C)(=O)=O)cc2)CC1` [Example 5, 2-[4-[1-(methyl)-4-piperidinyl]oxyphenyl]-1-(methylsulfonyl)-1H-indole] it was 107 nM; in that of `CN1CCC(Oc2ccc(-c3cc4ccccc4[nH]3)cc2)CC1` [Example 6, 2-[4-[1-(methyl)-4-piperidinyl]oxyphenyl] 1H-indole], 390 nM; in that of `CN(C)CCCOc1ccc(-c2cc3ccccc3n2S(C)(=O)=O)cc1` [Example 7, 2-[4-[3-Dimethylaminopropoxy]phenyl]-1-(methylsulfonyl)-1H-indole], 120 nM.
The molecule `CN(C)CCCOc1ccc(-c2cc3ccccc3[nH]2)cc1` [Example 8, 2-[4-[3-Dimethylaminopropoxy]phenyl] 1H-indole] came in with a Ki of 500 nM.
Molecule `CS(=O)(=O)n1c(-c2ccc(OCc3ccncc3)cc2)cc2ccccc21` [Example 9, 2-[4-[4-Pyridinyl]methoxyphenyl]-1-(methylsulfonyl)-1H-indole] displayed a Ki of 5000 nM.
For `CCN(CC)CCOc1ccc(-c2cc3ccccc3n2S(C)(=O)=O)cc1` [Example 10, 2-[4-[2-Diethylaminoethoxy]phenyl]-1-(methylsulfonyl)-1H-indole], the affinity, expressed as Ki, was 369 nM.
In the case of `CCN(CC)CCOc1ccc(-c2cc3ccccc3[nH]2)cc1` [Example 11, 2-[4-[2-Diethylaminoethoxy]phenyl]-1H-indole] it was 523 nM.
The result for `CS(=O)(=O)n1c(-c2cccc(OCCCN3CCCCC3)c2)cc2ccccc21` [Example 15, 2-[3-[3-Piperidinopropoxy]phenyl)-1-(methylsulfonyl)-1H-indole] reads 33 nM.
Take `CN1CCN(CCCOc2ccc(-c3cc4ccccc4[nH]3)cc2)CC1` [Example 16, 2-(4-(3-(4-Methylpiperazino)propoxy)phenyl)indole]: affinity was put at a Ki of 2000 nM.
For `CN1CCN(CCCOc2ccc(-c3cc4cc(Cl)ccc4n3S(C)(=O)=O)cc2)CC1` [Example 17], affinity was put at a Ki of 3000 nM.
